{"source": "BigSolDB 2.1"}
{"smiles": "Oc1ccccc1C=Nc1c(F)cccc1F", "values": [{"measurement": "solubility (mole fraction)", "setting": "in 1,2-dichloroethane, 273.15 K", "value": 0.105}, {"measurement": "solubility (mole fraction)", "setting": "in 1,2-dichloroethane, 278.15 K", "value": 0.122}, {"measurement": "solubility (mole fraction)", "setting": "in 1,2-dichloroethane, 283.15 K", "value": 0.142}, {"measurement": "solubility (mole fraction)", "setting": "in 1,2-dichloroethane, 288.15 K", "value": 0.164}, {"measurement": "solubility (mole fraction)", "setting": "in 1,2-dichloroethane, 293.15 K", "value": 0.193}, {"measurement": "solubility (mole fraction)", "setting": "in 1,2-dichloroethane, 298.15 K", "value": 0.234}, {"measurement": "solubility (mole fraction)", "setting": "in 1,2-dichloroethane, 303.15 K", "value": 0.277}, {"measurement": "solubility (mole fraction)", "setting": "in THF, 273.15 K", "value": 0.161}, {"measurement": "solubility (mole fraction)", "setting": "in THF, 278.15 K", "value": 0.181}, {"measurement": "solubility (mole fraction)", "setting": "in THF, 283.15 K", "value": 0.2}, {"measurement": "solubility (mole fraction)", "setting": "in THF, 288.15 K", "value": 0.23}, {"measurement": "solubility (mole fraction)", "setting": "in THF, 293.15 K", "value": 0.258}, {"measurement": "solubility (mole fraction)", "setting": "in THF, 298.15 K", "value": 0.293}, {"measurement": "solubility (mole fraction)", "setting": "in THF, 303.15 K", "value": 0.338}, {"measurement": "solubility (mole fraction)", "setting": "in acetonitrile, 273.15 K", "value": 0.0134}, {"measurement": "solubility (mole fraction)", "setting": "in acetonitrile, 278.15 K", "value": 0.0191}, {"measurement": "solubility (mole fraction)", "setting": "in acetonitrile, 283.15 K", "value": 0.0272}, {"measurement": "solubility (mole fraction)", "setting": "in acetonitrile, 288.15 K", "value": 0.0389}, {"measurement": "solubility (mole fraction)", "setting": "in acetonitrile, 293.15 K", "value": 0.0547}, {"measurement": "solubility (mole fraction)", "setting": "in acetonitrile, 298.15 K", "value": 0.0768}, {"measurement": "solubility (mole fraction)", "setting": "in acetonitrile, 303.15 K", "value": 0.106}, {"measurement": "solubility (mole fraction)", "setting": "in chloroform, 273.15 K", "value": 0.138}, {"measurement": "solubility (mole fraction)", "setting": "in chloroform, 278.15 K", "value": 0.154}, {"measurement": "solubility (mole fraction)", "setting": "in chloroform, 283.15 K", "value": 0.177}, {"measurement": "solubility (mole fraction)", "setting": "in chloroform, 288.15 K", "value": 0.203}, {"measurement": "solubility (mole fraction)", "setting": "in chloroform, 293.15 K", "value": 0.232}, {"measurement": "solubility (mole fraction)", "setting": "in chloroform, 298.15 K", "value": 0.27}, {"measurement": "solubility (mole fraction)", "setting": "in chloroform, 303.15 K", "value": 0.313}, {"measurement": "solubility (mole fraction)", "setting": "in dichloromethane, 273.15 K", "value": 0.122}, {"measurement": "solubility (mole fraction)", "setting": "in dichloromethane, 278.15 K", "value": 0.139}, {"measurement": "solubility (mole fraction)", "setting": "in dichloromethane, 283.15 K", "value": 0.161}, {"measurement": "solubility (mole fraction)", "setting": "in dichloromethane, 288.15 K", "value": 0.185}, {"measurement": "solubility (mole fraction)", "setting": "in dichloromethane, 293.15 K", "value": 0.218}, {"measurement": "solubility (mole fraction)", "setting": "in dichloromethane, 298.15 K", "value": 0.252}, {"measurement": "solubility (mole fraction)", "setting": "in dichloromethane, 303.15 K", "value": 0.295}, {"measurement": "solubility (mole fraction)", "setting": "in ethanol, 273.15 K", "value": 0.00496}, {"measurement": "solubility (mole fraction)", "setting": "in ethanol, 278.15 K", "value": 0.00633}, {"measurement": "solubility (mole fraction)", "setting": "in ethanol, 283.15 K", "value": 0.00819}, {"measurement": "solubility (mole fraction)", "setting": "in ethanol, 288.15 K", "value": 0.0103}, {"measurement": "solubility (mole fraction)", "setting": "in ethanol, 293.15 K", "value": 0.0128}, {"measurement": "solubility (mole fraction)", "setting": "in ethanol, 298.15 K", "value": 0.0157}, {"measurement": "solubility (mole fraction)", "setting": "in ethanol, 303.15 K", "value": 0.0192}, {"measurement": "solubility (mole fraction)", "setting": "in ethyl acetate, 273.15 K", "value": 0.0896}, {"measurement": "solubility (mole fraction)", "setting": "in ethyl acetate, 278.15 K", "value": 0.104}, {"measurement": "solubility (mole fraction)", "setting": "in ethyl acetate, 283.15 K", "value": 0.124}, {"measurement": "solubility (mole fraction)", "setting": "in ethyl acetate, 288.15 K", "value": 0.146}, {"measurement": "solubility (mole fraction)", "setting": "in ethyl acetate, 293.15 K", "value": 0.173}, {"measurement": "solubility (mole fraction)", "setting": "in ethyl acetate, 298.15 K", "value": 0.204}, {"measurement": "solubility (mole fraction)", "setting": "in ethyl acetate, 303.15 K", "value": 0.248}, {"measurement": "solubility (mole fraction)", "setting": "in isopropanol, 273.15 K", "value": 0.008}, {"measurement": "solubility (mole fraction)", "setting": "in isopropanol, 278.15 K", "value": 0.0095}, {"measurement": "solubility (mole fraction)", "setting": "in isopropanol, 283.15 K", "value": 0.0114}, {"measurement": "solubility (mole fraction)", "setting": "in isopropanol, 288.15 K", "value": 0.0136}, {"measurement": "solubility (mole fraction)", "setting": "in isopropanol, 293.15 K", "value": 0.0164}, {"measurement": "solubility (mole fraction)", "setting": "in isopropanol, 298.15 K", "value": 0.0195}, {"measurement": "solubility (mole fraction)", "setting": "in isopropanol, 303.15 K", "value": 0.0231}, {"measurement": "solubility (mole fraction)", "setting": "in methanol, 273.15 K", "value": 0.00299}, {"measurement": "solubility (mole fraction)", "setting": "in methanol, 278.15 K", "value": 0.00392}, {"measurement": "solubility (mole fraction)", "setting": "in methanol, 283.15 K", "value": 0.00512}, {"measurement": "solubility (mole fraction)", "setting": "in methanol, 288.15 K", "value": 0.00667}, {"measurement": "solubility (mole fraction)", "setting": "in methanol, 293.15 K", "value": 0.00873}, {"measurement": "solubility (mole fraction)", "setting": "in methanol, 298.15 K", "value": 0.0111}, {"measurement": "solubility (mole fraction)", "setting": "in methanol, 303.15 K", "value": 0.0141}, {"measurement": "solubility (mole fraction)", "setting": "in n-propanol, 273.15 K", "value": 0.00636}, {"measurement": "solubility (mole fraction)", "setting": "in n-propanol, 278.15 K", "value": 0.00779}, {"measurement": "solubility (mole fraction)", "setting": "in n-propanol, 283.15 K", "value": 0.00958}, {"measurement": "solubility (mole fraction)", "setting": "in n-propanol, 288.15 K", "value": 0.0118}, {"measurement": "solubility (mole fraction)", "setting": "in n-propanol, 293.15 K", "value": 0.0146}, {"measurement": "solubility (mole fraction)", "setting": "in n-propanol, 298.15 K", "value": 0.0177}, {"measurement": "solubility (mole fraction)", "setting": "in n-propanol, 303.15 K", "value": 0.0212}, {"measurement": "solubility (mole fraction)", "setting": "in toluene, 273.15 K", "value": 0.0871}, {"measurement": "solubility (mole fraction)", "setting": "in toluene, 278.15 K", "value": 0.105}, {"measurement": "solubility (mole fraction)", "setting": "in toluene, 283.15 K", "value": 0.126}, {"measurement": "solubility (mole fraction)", "setting": "in toluene, 288.15 K", "value": 0.149}, {"measurement": "solubility (mole fraction)", "setting": "in toluene, 293.15 K", "value": 0.176}, {"measurement": "solubility (mole fraction)", "setting": "in toluene, 298.15 K", "value": 0.213}, {"measurement": "solubility (mole fraction)", "setting": "in toluene, 303.15 K", "value": 0.251}]}
